Experimental data reported in patent US20240166609A1, “ANTIBACTERIAL COMPOUNDS” (BLACKSMITH MEDICINES, INC., priority 2021, published 2024).
In brackets after ≈: the same amount, converted by molar mass.

Key:
E. coli ATCC25922 = assay: Bacterial susceptibility testing, MIC by broth microdilution (CLSI); type: cell-based; conditions: Escherichia coli, 35° C., 18-24 h, read-out: MIC (μg/mL) E. coli ATCC25922
Protocol: (§1) Minimal inhibitory concentrations (MIC) were determined by the broth microdilution method in accordance with the Clinical and Laboratory Standards Institute (CLSI) guidelines. In brief, organism suspensions were adjusted to a final inoculum between 3×10^5 and 7×10^5 colony-forming units (CFU)/mL. Drug dilutions and inocula were made in sterile, cation adjusted Mueller-Hinton Broth (Beckton Dickinson). In wells, an inoculum volume of 100 μL was mixed to 2 μL of DMSO with 2-fold serial dilutions of drug. All inoculated microdilution trays were incubated in ambient air at 35° C. for 18-24 h. Following incubation, the lowest concentration of the drug that prevented visible growth (OD600 nm<0.05) was recorded as the MIC. Performance of the assay was monitored by the use of laboratory quality-control strains and compounds with defined MIC spectrum, in accordance with CLSI guidelines

K. pneumoniae ATCC13883 = assay: as above; type: cell-based; conditions: Klebsiella pneumoniae, 35° C., 18-24 h, read-out: MIC (μg/mL) K. pneumoniae ATCC13883
Protocol: as §1

P. aeruginosa 209 PAO1 = assay: as above; type: cell-based; conditions: Pseudomonas aeruginosa, 35° C., 18-24 h, read-out: MIC (μg/mL) P. aeruginosa 209 PAO1
Protocol: as §1

P. aeruginosa ATCC27835 = assay: as above; type: cell-based; conditions: Pseudomonas aeruginosa, 35° C., 18-24 h, read-out: MIC (μg/mL) P. aeruginosa ATCC27835
Protocol: as §1

E. coli LpxC = target: T1, E. coli LpxC (Escherichia coli, UniProt P0A725); assay: LpxC Binding Assay (Rapid Fire MS assay); type: biochemical
T1 sequence (P0A725 1-305): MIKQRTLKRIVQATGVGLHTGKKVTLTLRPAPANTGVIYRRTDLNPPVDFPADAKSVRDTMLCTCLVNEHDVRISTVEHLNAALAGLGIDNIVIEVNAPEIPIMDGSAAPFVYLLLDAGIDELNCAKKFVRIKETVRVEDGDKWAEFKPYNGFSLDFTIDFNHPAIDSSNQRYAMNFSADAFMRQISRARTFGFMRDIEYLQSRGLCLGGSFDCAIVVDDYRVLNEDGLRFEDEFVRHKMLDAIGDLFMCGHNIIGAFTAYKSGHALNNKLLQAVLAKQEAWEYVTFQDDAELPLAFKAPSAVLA
Protocol: (§2) IC50 values against E. coli and P. aeruginosa LpxC are determined using a Rapid Fire MS assay as previously described J. Med. Chem. 2012, 55, 1662-1670.

P. aeruginosa LpxC = target: T2, P. aeruginosa LpxC (Pseudomonas aeruginosa, UniProt P47205); assay: LpxC Binding Assay (Rapid Fire MS assay); type: biochemical
T2 sequence (P47205 1-303): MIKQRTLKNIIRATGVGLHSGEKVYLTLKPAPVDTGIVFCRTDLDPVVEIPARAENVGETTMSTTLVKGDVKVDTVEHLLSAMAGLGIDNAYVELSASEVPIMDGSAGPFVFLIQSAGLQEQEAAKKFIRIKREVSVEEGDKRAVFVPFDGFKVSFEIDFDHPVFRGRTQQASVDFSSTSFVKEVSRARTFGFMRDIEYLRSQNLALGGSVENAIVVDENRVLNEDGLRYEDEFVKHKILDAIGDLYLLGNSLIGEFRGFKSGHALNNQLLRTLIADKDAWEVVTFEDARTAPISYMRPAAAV
Protocol: as §2

K. pneumoniae LpxC = K. pneumoniae LpxC (Klebsiella pneumoniae subsp. pneumoniae, UniProt A6T4N9); assay: LpxC Binding Assay (Rapid Fire MS assay); type: biochemical
Sequence of K. pneumoniae LpxC (A6T4N9 whole entry): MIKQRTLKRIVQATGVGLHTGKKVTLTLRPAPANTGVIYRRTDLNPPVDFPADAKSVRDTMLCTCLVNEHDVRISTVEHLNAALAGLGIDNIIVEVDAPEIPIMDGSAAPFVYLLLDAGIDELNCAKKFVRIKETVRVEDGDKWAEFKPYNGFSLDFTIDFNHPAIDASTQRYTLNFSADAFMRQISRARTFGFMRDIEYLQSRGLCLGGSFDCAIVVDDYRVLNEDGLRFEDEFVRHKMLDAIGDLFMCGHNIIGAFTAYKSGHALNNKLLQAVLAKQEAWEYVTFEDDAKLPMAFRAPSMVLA

Row | SMILES | MIC (E. coli ATCC25922) | MIC (K. pneumoniae ATCC13883) | MIC (P. aeruginosa 209 PAO1) | MIC (P. aeruginosa ATCC27835) | IC50 (E. coli LpxC) | IC50 (P. aeruginosa LpxC) | IC50 (K. pneumoniae LpxC)
1 | COCC(N)COc1ccc(-c2ccc(C#C[C@@H](CO)n3ccnc3[C@H](C)O)cc2)cc1 (mixture of isomers) [Compound 3, (2S)-4-(4′-(2-amino-3-methoxypropoxy)-[1,1′-biphenyl]-4-yl)-2-(2-((S)-1-hydroxyethyl)-1H-imidazol-1-yl)but-3-yn-1-ol] | 2 µg/mL (≈ 4.59 µM) | 4 µg/mL (≈ 9.18 µM) | 1 µg/mL (≈ 2.3 µM) | 2 µg/mL (≈ 4.59 µM) | 1.5 nM | 15.1 nM | 2.2 nM
2 | C[C@H](O)c1nccn1[C@@H](C#Cc1ccc(-c2ccc(OCC(CO)CO)cc2)cc1)CO [Compound 11, 2-(((4′-((S)-4-hydroxy-3-(2-((S)-1-hydroxyethyl)-1H-imidazol-1-yl)but-1-yn-1-yl)-[1,1′-biphenyl]-4-yl)oxy)methyl)propane-1,3-diol] |  | 8 µg/mL (≈ 18.3 µM) | 2 µg/mL (≈ 4.58 µM) | 4 µg/mL (≈ 9.16 µM) | 1 nM | 6.6 nM | 1.8 nM
3 | COC[C@@H](O)COc1ccc(-c2ccc(C#C[C@@H](CO)n3ccnc3[C@H](C)O)cc2)cc1 [Compound 14, (S)-4-(4′-((R)-2-hydroxy-3-methoxypropoxy)-[1,1′-biphenyl]-4-yl)-2-(2-((S)-1-hydroxyethyl)-1H-imidazol-1-yl)but-3-yn-1-ol] |  | 2 µg/mL (≈ 4.58 µM) | 1 µg/mL (≈ 2.29 µM) | 2 µg/mL (≈ 4.58 µM) | < 0.5 nM | 6.4 nM | 0.9 nM
4 | C[C@H](O)c1nccn1CC#Cc1ccc(-c2ccc(C3CC(NCCC#N)C3)cc2)cc1 (stereo partly drawn) [Compound 18, (S)-3-((3-(4′-(3-(2-(1-hydroxyethyl)-1H-imidazol-1-yl)prop-1-yn-1-yl)-[1,1′-biphenyl]-4-yl)cyclobutyl)amino)propanenitrile] |  | 0.25 µg/mL (≈ 0.589 µM) | 2 µg/mL (≈ 4.71 µM) | 2 µg/mL (≈ 4.71 µM) | < 0.5 nM | 8.6 nM | 0.6 nM
5 | C[C@H](O)c1nccn1CC#Cc1ccc(-c2ccc(C3CC(NCCO)C3)cc2)cc1 (stereo partly drawn) [Compound 19, (S)-2-((3-(4′-(3-(2-(1-hydroxyethyl)-1H-imidazol-1-yl)prop-1-yn-1-yl)-[1,1′-biphenyl]-4-yl)cyclobutyl)amino)ethan-1-ol] |  | 1 µg/mL (≈ 2.41 µM) | 4 µg/mL (≈ 9.63 µM) | 4 µg/mL (≈ 9.63 µM) | < 0.5 nM | 15.9 nM | 0.7 nM
6 | C[C@H](O)c1nccn1CC#Cc1ccc(-c2ccc(C3CC(NC4COC4)C3)cc2)cc1 (stereo partly drawn) [Compound 20, (S)-1-(1-(3-(4′-(3-(oxetan-3-ylamino)cyclobutyl)-[1,1′-biphenyl]-4-yl)prop-2-yn-1-yl)-1H-imidazol-2-yl)ethan-1-ol] |  | 0.5 µg/mL (≈ 1.17 µM) | 4 µg/mL (≈ 9.36 µM) | 4 µg/mL (≈ 9.36 µM) | < 0.5 nM | 11.8 nM | 0.7 nM
7 | C[C@H](O)c1nccn1CC#Cc1ccc(-c2ccc(C3CN(C(=O)CO)C3)cc2)cc1 [Compound 21, (S)-2-hydroxy-1-(3-(4′-(3-(2-(1-hydroxyethyl)-1H-imidazol-1-yl)prop-1-yn-1-yl)-[1,1′-biphenyl]-4-yl)azetidin-1-yl)ethan-1-one] |  | 1 µg/mL (≈ 2.41 µM) | 4 µg/mL (≈ 9.63 µM) | 4 µg/mL (≈ 9.63 µM) | < 0.5 nM | 12.6 nM | 0.7 nM
8 | C[C@H](O)c1nccn1[C@@H](C#Cc1ccc(-c2ccc(OCC(O)CCCO)cc2)cc1)CO (stereo partly drawn) [Compound 23, 5-((4′-((S)-4-hydroxy-3-(2-((S)-1-hydroxyethyl)-1H-imidazol-1-yl)but-1-yn-1-yl)-[1,1′-biphenyl]-4-yl)oxy)pentane-1,4-diol] |  | 2 µg/mL (≈ 4.44 µM) | 2 µg/mL (≈ 4.44 µM) | 2 µg/mL (≈ 4.44 µM) | 0.5 nM | 7.8 nM | 1 nM
